Series [1] concerns the target T1, Epidermal growth factor receptor (Homo sapiens, UniProt P00533).
Description: Inhibition of wild type EGFR (unknown origin) using poly (Glu:Tyr) as substrate incubated for 1 hr in presence of ATP by ADP-glo kinase assay
For series [2], the target named is Epidermal growth factor receptor (Homo sapiens, UniProt P00533, L858R/T790M).
Series [3] is described as follows: Aqueous solubility of the compound in PBS buffer at PH 7.4 measured after 6 hrs by HPLC-UV analysis. Format: physicochemical. The following applies: pH 7.4, 6 h.
In another series the test system is A549. Put plainly: cells. The following applies: Homo sapiens, A549, 72 h.
The next series relates to HepG2. Put plainly: cells. The following applies: Homo sapiens, HepG2, 72 h.
In another series the test system is A-431. In words: cells. Particulars: Homo sapiens, A-431, 72 h.
Series [4] addresses T2, Tyrosine-protein kinase JAK3 (Homo sapiens, UniProt P52333).
T2 sequence (P52333 whole entry): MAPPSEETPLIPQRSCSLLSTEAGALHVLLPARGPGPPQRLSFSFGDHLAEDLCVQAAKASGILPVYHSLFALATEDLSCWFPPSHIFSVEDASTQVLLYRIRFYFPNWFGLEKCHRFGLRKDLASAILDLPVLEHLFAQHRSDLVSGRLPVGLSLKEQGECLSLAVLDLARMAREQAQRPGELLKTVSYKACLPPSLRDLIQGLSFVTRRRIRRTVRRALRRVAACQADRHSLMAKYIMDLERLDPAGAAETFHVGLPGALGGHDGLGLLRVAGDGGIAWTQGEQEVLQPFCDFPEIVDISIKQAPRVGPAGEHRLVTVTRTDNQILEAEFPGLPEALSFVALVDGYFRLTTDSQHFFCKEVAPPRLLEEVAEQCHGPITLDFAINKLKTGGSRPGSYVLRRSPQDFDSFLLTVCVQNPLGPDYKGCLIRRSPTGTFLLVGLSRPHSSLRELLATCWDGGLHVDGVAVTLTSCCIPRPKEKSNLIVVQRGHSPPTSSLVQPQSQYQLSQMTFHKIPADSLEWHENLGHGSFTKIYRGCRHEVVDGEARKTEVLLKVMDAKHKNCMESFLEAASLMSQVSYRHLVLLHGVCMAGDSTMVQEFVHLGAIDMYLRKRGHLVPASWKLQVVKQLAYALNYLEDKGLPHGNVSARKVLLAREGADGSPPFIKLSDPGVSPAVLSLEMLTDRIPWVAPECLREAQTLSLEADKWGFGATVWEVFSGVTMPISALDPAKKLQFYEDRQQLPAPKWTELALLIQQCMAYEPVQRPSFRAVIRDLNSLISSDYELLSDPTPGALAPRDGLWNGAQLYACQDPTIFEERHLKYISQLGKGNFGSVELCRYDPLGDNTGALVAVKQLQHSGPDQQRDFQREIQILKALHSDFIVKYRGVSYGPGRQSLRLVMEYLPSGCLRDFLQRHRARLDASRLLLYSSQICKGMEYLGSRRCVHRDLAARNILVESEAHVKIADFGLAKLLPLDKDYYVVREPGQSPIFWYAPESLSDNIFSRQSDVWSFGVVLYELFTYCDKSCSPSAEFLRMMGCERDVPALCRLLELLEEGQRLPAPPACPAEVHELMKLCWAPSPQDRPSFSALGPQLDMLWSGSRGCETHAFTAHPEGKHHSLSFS
Description: Inhibition of JAK3 (unknown origin) using poly (Glu:Tyr) as substrate incubated for 1 hr in presence of ATP by ADP-glo kinase assay

A short description of a further series: in vitro. The following applies: human, HepG2 cells and A549 cells.
The nature of the next series: physchem. Particulars: 1-octanol/PBS, pH 7.4.
Series [5] addresses T1, Epidermal growth factor receptor. In words: Potency index, ratio of rociletinib IC50 to test compound IC50 for inhibition of wild type EGFR (unknown origin).
Series [6] has the same target. The source holds these as a separate data set.
Description: Irreversible inhibition of wild type EGFR (unknown origin) assessed as inactivation constant
Series [7] has the same target. In words: Binding affinity to wild type EGFR (unknown origin) assessed as inhibition constant.

The record followed here is ChEMBL document CHEMBL6092148, “Design, preparation and biological evaluation of new Rociletinib-inspired analogs as irreversible EGFR inhibitors to treat non-small-cell-lung cancer” (Bioorg Med Chem, 2024).

Epidermal growth factor receptor (Homo sapiens, UniProt P00533, L858R/T790M), sequence (P00533 25-1210 T790M/L858R limits assumed): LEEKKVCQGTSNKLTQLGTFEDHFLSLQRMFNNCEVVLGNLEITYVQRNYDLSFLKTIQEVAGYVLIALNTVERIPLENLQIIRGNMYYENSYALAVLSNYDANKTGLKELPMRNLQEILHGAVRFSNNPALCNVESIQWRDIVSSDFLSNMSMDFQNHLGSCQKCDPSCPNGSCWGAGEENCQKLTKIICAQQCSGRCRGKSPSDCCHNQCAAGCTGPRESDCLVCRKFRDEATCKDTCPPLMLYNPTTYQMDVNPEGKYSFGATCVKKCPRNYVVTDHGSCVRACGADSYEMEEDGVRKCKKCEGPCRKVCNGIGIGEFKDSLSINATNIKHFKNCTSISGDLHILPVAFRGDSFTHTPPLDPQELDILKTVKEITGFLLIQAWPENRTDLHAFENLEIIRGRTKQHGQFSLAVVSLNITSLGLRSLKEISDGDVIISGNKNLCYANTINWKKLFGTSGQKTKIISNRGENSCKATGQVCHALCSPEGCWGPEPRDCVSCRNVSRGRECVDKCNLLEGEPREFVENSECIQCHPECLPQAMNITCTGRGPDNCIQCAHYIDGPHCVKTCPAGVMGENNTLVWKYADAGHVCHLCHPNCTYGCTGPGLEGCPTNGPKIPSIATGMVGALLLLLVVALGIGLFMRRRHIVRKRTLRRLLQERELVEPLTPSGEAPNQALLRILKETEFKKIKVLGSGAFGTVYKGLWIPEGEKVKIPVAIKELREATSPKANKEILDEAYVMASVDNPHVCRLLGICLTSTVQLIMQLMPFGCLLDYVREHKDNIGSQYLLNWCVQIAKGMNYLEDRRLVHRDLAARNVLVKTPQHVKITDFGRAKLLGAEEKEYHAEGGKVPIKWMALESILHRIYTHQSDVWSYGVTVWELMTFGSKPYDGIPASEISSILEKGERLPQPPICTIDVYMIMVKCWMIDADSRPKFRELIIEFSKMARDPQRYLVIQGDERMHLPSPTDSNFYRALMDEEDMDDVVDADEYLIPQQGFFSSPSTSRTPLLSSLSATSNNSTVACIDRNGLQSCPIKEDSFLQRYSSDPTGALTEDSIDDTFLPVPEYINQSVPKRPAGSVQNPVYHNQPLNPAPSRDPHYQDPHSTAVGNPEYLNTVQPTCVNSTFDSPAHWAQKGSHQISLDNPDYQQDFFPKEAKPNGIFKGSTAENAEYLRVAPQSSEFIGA
T1 sequence (P00533 whole entry): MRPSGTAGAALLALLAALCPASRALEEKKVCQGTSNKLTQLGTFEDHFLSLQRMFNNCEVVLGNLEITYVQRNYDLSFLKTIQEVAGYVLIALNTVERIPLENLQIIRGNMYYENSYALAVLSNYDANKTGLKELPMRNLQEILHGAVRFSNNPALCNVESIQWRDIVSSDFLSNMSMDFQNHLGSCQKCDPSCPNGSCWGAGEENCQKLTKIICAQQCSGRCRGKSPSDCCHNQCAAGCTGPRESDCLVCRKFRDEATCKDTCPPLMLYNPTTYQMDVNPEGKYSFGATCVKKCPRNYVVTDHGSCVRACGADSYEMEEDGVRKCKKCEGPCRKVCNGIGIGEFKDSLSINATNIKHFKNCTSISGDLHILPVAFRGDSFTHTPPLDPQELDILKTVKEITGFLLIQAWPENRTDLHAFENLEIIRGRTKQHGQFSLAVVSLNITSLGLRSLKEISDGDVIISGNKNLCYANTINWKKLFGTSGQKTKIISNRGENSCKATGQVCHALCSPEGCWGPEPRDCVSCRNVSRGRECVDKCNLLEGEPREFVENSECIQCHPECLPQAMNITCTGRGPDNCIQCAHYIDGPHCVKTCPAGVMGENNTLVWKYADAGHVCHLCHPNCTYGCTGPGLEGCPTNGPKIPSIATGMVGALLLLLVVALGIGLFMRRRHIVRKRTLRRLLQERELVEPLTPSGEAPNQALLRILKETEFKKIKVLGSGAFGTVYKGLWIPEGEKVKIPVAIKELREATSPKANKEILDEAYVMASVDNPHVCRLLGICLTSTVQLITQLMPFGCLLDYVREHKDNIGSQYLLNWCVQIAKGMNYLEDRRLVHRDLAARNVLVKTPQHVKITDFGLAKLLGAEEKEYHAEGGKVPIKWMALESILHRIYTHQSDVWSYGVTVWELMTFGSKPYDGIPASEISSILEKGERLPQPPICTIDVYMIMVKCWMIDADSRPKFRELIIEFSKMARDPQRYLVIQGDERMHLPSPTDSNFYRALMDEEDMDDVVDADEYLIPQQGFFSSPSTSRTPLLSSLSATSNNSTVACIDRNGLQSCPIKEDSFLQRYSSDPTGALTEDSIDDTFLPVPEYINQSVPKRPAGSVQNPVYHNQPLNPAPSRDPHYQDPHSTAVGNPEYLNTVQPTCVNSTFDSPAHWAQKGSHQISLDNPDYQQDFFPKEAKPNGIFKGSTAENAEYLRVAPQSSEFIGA
Description for in vitro: Selectivity index, ratio of IC50 for human HepG2 cells to IC50 for human A549 cells

Broadly, the IC50 is the midpoint of a concentration-inhibition curve. Low readings indicate greater potency in that assay, high ones weaker potency in that assay. With `O=C(/C=C/c1ccccc1)Nc1cccc(Nc2nc(Nc3ccc4[nH]c(=O)oc4c3)ncc2Cl)c1`, the IC50 in series [1] was 0.0767 µM.

For the compound `CCC(=O)Nc1cccc(Nc2nc(Nc3ccc4c(C)n(C)nc4c3)ncc2Cl)c1`, half-maximal inhibition in series [1] (IC50) was put at 0.0592 µM.

What is called logD is lipophilicity at a set pH, counting ionised and neutral species. A lower logD goes with lower lipophilicity. In the case of `Cn1cc(Nc2ncc(Cl)c(Nc3cccc(NC(=O)/C=C/c4ccccc4)c3)n2)cn1`, the IC50 is 0.0228 µM in series [2]; 1.48 µM in the series on A549; 0.0448 µM in series [1]; 3.65 µM in the series with HepG2; 10.5 µM in the series with A-431; 0.008 µM in [4]. In [3], the solubility amounted to 1.35 µg. In addition, the selectivity ratio in the series “in vitro” was 2.46. This compound yielded a logD at 6 h in “physchem” of 4.18.

As to `COc1cc(N2CCN(C(C)=O)CC2)ccc1Nc1ncc(Cl)c(Nc2cccc(NC(=O)CCl)c2)n1`, the concentration for half-maximal inhibition (IC50) was found to be 0.0568 µM in series [2]; 5.78 µM in the series on A549; 0.0226 µM in series [1]; 12.6 µM in the series on HepG2; 7.05 µM in the series with A-431. For the same compound, the solubility in series [3] was 8.65 µg. Also, the Ratio IC50 in series [5] came to 28. The selectivity ratio in the series “in vitro” came out at 2.18. Also, the logD at 6 h in the series “physchem” turned out to be 3.67.

Take `Cn1cc(Nc2ncc(Cl)c(Nc3cccc(NC(=O)CCl)c3)n2)cn1`: the IC50 was found to be 0.0478 µM in [2]; 2.78 µM in the series on A549; 0.0416 µM in series [1]; 4.3 µM in the series with HepG2; 3.7 µM with A-431; 0.911 µM in [4]. The compound further yielded a solubility in series [3] of 183 µg. In addition, the selectivity ratio in the series “in vitro” worked out at 1.54. In addition, the logD at 6 h in “physchem” came out at 2.6.

Consider `CCC(=O)Nc1cccc(Nc2nc(Nc3cnn(C)c3)ncc2Cl)c1`, for which the IC50 in series [2] was 0.0189 µM; in the series with A549, 2.77 µM; in [1], 0.035 µM; in the series on HepG2, 28.3 µM; in the series with A-431, 11.2 µM; in [4] it was 0.0317 µM. For the same compound, the solubility in [3] was determined as 80.1 µg. Further, the selectivity ratio in the series “in vitro” was 10.2. Besides, the logD at 6 h in the series “physchem” was 2.67.

Turning to `CCC(=O)Nc1cccc(Nc2nc(Nc3ccc(N4CCN(C(C)=O)CC4)cc3)ncc2Cl)c1`, the IC50 in series [1] turned out to be 0.0659 µM.

The compound `C=CC(=O)Nc1cccc(Nc2nc(Nc3ccc4c(C)n(C)nc4c3)ncc2Cl)c1` gave an IC50 in series [1] of 0.0978 µM.

For `C=CC(=O)Nc1cccc(Nc2nc(Nc3ccc(N4CCN(C(C)=O)CC4)cc3)ncc2Cl)c1`, the IC50 in [2] was determined as 0.0697 µM; with A549, 0.23 µM; in [1], 0.0436 µM; in the series with HepG2 it was 1.07 µM; in the series with A-431 it was 3.47 µM. The same compound displayed a solubility in series [3] of 13.4 µg. Besides, in “in vitro”, the selectivity ratio was 4.65. The logD at 6 h in the series “physchem” turned out to be 3.18.

Consider `CC(=O)N1CCN(c2ccc(Nc3ncc(Cl)c(Nc4cccc(NC(=O)CCl)c4)n3)cc2)CC1`, for which, in series [1], the IC50 came to 0.114 µM. In other words, the sub-micromolar range.

Consider `C=CC(=O)Nc1cccc(Nc2nc(Nc3ccc4[nH]c(=O)oc4c3)ncc2Cl)c1`, for which it took 0.0635 µM to reach half-maximal inhibition in series [1] (IC50).

The compound `C=CC(=O)Nc1cccc(Nc2nc(Nc3ccc(N4CCN(C(C)=O)CC4)cc3OC)ncc2C(F)(F)F)c1` [ROCILETINIB] registered a solubility in series [3] of 221 µg. The IC50 with A549 was 0.2 µM; with HepG2 it was 7.39 µM; with A-431, 0.32 µM; in [4] it was 0.0043 µM. In addition, in the series “physchem”, the log distribution coefficient (logD) at 6 h came to 3.18.

On to `Cc1c2ccc(Nc3ncc(Cl)c(Nc4cccc(NC(=O)/C=C/c5ccccc5)c4)n3)cc2nn1C`, for which half-maximal inhibition in series [1] (IC50) was put at 0.0656 µM.

Regarding `CC(=O)N1CCN(c2ccc(Nc3ncc(Cl)c(Nc4cccc(NC(=O)/C=C/c5ccccc5)c4)n3)cc2)CC1`, in series [1], half-maximal inhibition (IC50) was put at 0.0878 µM. The IC50 values of the last two compounds are within 1.5-fold of each other.

One may read the Ki as the equilibrium dissociation constant of an inhibitor or competing ligand from its target. For `C=CC(=O)Nc1cccc(Nc2nc(Nc3cnn(C)c3)ncc2Cl)c1`, the IC50 turned out to be 0.0207 µM in series [2]; 0.79 µM in the series on A549; 0.174 µM in series [1]; 3.25 µM in the series with HepG2; 6.39 µM with A-431; 0.0695 µM in series [4]. The compound also had a solubility in series [3] of 109 µg. Also, the Kinact in series [6] was 6.16 10^-1/s. In the series “in vitro”, the selectivity ratio stood at 4.11. Further, the Ki in series [7] amounted to 3810 µM. The same compound came in with a log distribution coefficient (logD) at 6 h in “physchem” of 2.86.

In series [1], `COc1cc(N2CCN(C(C)=O)CC2)ccc1Nc1ncc(Cl)c(Nc2cccc(NC(=O)/C=C/c3ccccc3)c2)n1` yielded an IC50 of 0.058 µM.

On to `Cc1c2ccc(Nc3ncc(Cl)c(Nc4cccc(NC(=O)CCl)c4)n3)cc2nn1C`, for which the IC50 in series [1] amounted to 0.0789 µM.

In the case of `CCC(=O)Nc1cccc(Nc2nc(Nc3ccc4[nH]c(=O)oc4c3)ncc2Cl)c1`, half-maximal inhibition in series [1] (IC50) was put at 0.116 µM.

In the case of `C=CC(=O)Nc1cccc(Nc2nc(Nc3ccc(N4CCN(C(C)=O)CC4)cc3OC)ncc2Cl)c1`, inhibition in series [1] was half-maximal at 0.0876 µM (IC50).

In series [1], `CCC(=O)Nc1cccc(Nc2nc(Nc3ccc(N4CCN(C(C)=O)CC4)cc3OC)ncc2Cl)c1` had an IC50 of 0.0629 µM.

With `O=C(CCl)Nc1cccc(Nc2nc(Nc3ccc4[nH]c(=O)oc4c3)ncc2Cl)c1`, the half-inhibitory concentration (IC50) was determined as 0.0632 µM in series [2]; 7.29 µM with A549; 0.0431 µM in series [1]; 7.06 µM in the series on HepG2; 7.49 µM in the series on A-431. Further, the solubility in [3] was 15.4 µg. Also, the selectivity ratio in the series “in vitro” was determined as 0.96. The logD at 6 h in “physchem” amounted to 3.51.

As to `C=CC(=O)Nc1cc(Nc2nccc(-c3cn(C)c4ccccc34)n2)c(OC)cc1N(C)CCN(C)C` [OSIMERTINIB], in [3], the solubility worked out at 30.1 µg. Moreover, the IC50 in the series on A549 came to 10.2 µM; with HepG2, 3.65 µM; in the series with A-431 it was […]; in [4], 0.0353 µM. This compound also returned a log distribution coefficient (logD) at 6 h in the series “physchem” of 3.43.
